Source: patent US20160272617A1, “SUBSTITUTED PHENYLALANINE DERIVATIVES” (BAYER PHARMA AKTIENGESELLSCHAFT, priority 2013, published 2016)
Counter-ions that a name gives are not always drawn.

What was measured:
human factor XIa = biological target: T1, human factor XIa (Homo sapiens, UniProt P03951); experiment: Measurement of FXIa inhibition (fluorogenic peptide substrate Boc-Glu(OBzl)-Ala-Arg-AMC); format: biochemical; conditions: factor XIa from Kordia, 15 min preincubation, 30 min at 22° C., fluorescence
T1 construct: purchased Kordia
T1 sequence (P03951 388-625 limits assumed): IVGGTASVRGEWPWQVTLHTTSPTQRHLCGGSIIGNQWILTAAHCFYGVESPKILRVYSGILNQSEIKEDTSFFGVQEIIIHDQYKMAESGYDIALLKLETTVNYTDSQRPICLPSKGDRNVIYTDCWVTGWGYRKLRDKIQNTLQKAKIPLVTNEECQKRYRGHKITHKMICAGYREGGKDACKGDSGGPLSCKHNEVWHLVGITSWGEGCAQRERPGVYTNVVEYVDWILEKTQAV
T1 sequence (P03951 19-387 partner limits assumed): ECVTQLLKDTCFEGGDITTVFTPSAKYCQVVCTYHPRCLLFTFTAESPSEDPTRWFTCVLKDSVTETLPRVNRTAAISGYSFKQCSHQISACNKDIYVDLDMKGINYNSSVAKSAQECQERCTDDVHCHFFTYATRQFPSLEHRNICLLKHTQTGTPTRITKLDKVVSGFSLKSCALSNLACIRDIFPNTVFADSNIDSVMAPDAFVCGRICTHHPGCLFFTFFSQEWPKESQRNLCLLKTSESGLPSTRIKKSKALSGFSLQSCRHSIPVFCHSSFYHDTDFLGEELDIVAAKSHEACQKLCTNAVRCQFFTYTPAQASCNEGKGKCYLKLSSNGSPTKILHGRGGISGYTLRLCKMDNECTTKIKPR
Procedure: The factor XIa inhibition of the inventive substances is determined using a biochemical test system which utilizes the reaction of a peptidic factor XIa substrate to determine the enzymatic activity of human factor XIa. Here, factor XIa cleaves from the peptic factor XIa substrate the C-terminal aminomethylcoumarin (AMC), the fluorescence of which is measured. The determinations are carried out in microtitre plates.
Test substances are dissolved in dimethyl sulphoxide and serially diluted in dimethyl sulphoxide (3000 μM to 0.0078 μM; resulting final concentrations in the test: 50 μM to 0.00013 μM). In each case 1 μl of the diluted substance solutions is placed into the wells of white microtitre plates from Greiner (384 wells). Subsequently, the following are added successively: 20 μl of assay buffer (50 mmol/l Tris buffer pH 7.4; 100 mmol/l sodium chloride; 5 mmol/l calcium chloride; 0.1% bovine serum albumin) and 20 μl of factor XIa from Kordia (0.45 nM in assay buffer). After 15 min of incubation, the enzyme reaction is started by addition of 20 μl of the factor XIa substrate Boc-Glu(OBzl)-Ala-Arg-AMC dissolved in assay buffer (10 μM in assay buffer) from Bachem, the mixture is incubated at room temperature (22° C.) for 30 min and fluorescence is then measured (excitation: 360 nm, emission: 460 nm). The measured emissions of the test mixtures with test substance are compared to those of control mixtures without test substance (only dimethyl sulphoxide instead of test substance in dimethyl sulphoxide), and the IC50 values are calculated from the concentration/activity relationships.

human and animal plasma = experiment: Determination of anticoagulatory activity: activated partial thromboplastin time (aPTT) in plasma; conditions: concentration of test substance which brings about a 1.5-fold extension of the aPTT; plasma species not given
Procedure: The anticoagulatory activity of the test substances is determined in vitro in human and animal plasma (for example mouse, rat, rabbit, pig and dog plasma). To this end, blood is drawn off in a mixing ratio of sodium citrate/blood of 1:9 using a 0.11 molar sodium citrate solution as receiver. Immediately after the blood has been drawn off, it is mixed thoroughly and centrifuged at about 4000 g for 15 minutes. The supernatant is pipetted off.
The activated partial thromboolastin time (aPTT) is determined in the presence of varying concentrations of test substance or the corresponding solvent using a commercial test kit (C. K. Prest from Diagnostica Stago). The test compounds are incubated with the plasma and the PTT reagent (cephalin, kaolin) at 37° C. for 3 minutes. Coagulation is then started by addition of a 25 mM aqueous calcium chloride solution, and the time when coagulation occurs is determined. The concentration of test substance which brings about a 1.5-fold extension of the aPTT is determined.

| Compound | IC50 (human factor XIa) | aPTT (human and animal plasma) |
| --- | --- | --- |
| Cc1cc(C(=O)N[C@H]2CC[C@H](O)CC2)ccc1-c1ccc(CC(NC(=O)[C@H]2CC[C@H](CN)CC2)C(=O)Nc2ccc(-c3nnc(C(F)(F)C(F)(F)C(=O)O)[nH]3)cc2)cc1 (mixture of isomers) [Example 103, 3-[5-(4-{[2-({[trans-4-(Aminomethyl)cyclohexyl]carbonyl}amino)-3-{4′-[(trans-4-hydroxycyclohexyl)carbamoyl]-2′-methylbiphenyl-4-yl}propanoyl]amino}phenyl)-4H-1,2,4-triazol-3-yl]-2,2,3,3-tetrafluoropropanoic acid hydrochloride (enantiomer mixture)] | 1.1 nM | 0.1 µmol/L |
| Cc1cc(C(=O)N[C@H]2CC[C@H](O)CC2)ccc1-c1ccc(CC(NC(=O)[C@H]2CC[C@H](CN)CC2)C(=O)Nc2ccc(-c3nnc(C(F)(F)C(F)(F)C(=O)O)[nH]3)cc2)cc1 (mixture of isomers) [Example 131, 3-[5-(4-{[2-({[trans-4-(Aminomethyl)cyclohexyl]carbonyl}amino)-3-{4′-[(trans-4-hydroxycyclohexyl)carbamoyl]-2′-methylbiphenyl-4-yl}propanoyl]amino}phenyl)-4H-1,2,4-triazol-3-yl]-2,2,3,3-tetrafluoropropanoic acid (enantiomer mixture)] | – | 0.2 µmol/L |
| Cc1cc(C(=O)N[C@H]2CC[C@H](O)CC2)ccc1-c1ccc(C[C@H](NC(=O)[C@H]2CC[C@H](CN)CC2)C(=O)Nc2ccc(-c3nnc(C(F)(F)C(F)(F)C(=O)O)[nH]3)cc2)cc1 (single isomer, unassigned; enantiomer 1) [Example 104] | 0.4 nM | 0.05 µmol/L |
| CCN(CC)CCNC(=O)c1ccc(-c2ccc(C[C@H](NC(=O)[C@H]3CC[C@H](CN)CC3)C(=O)Nc3ccc(-c4nn[nH]n4)cc3)cc2)c(C)c1.Cl [Example 2, 4′-[(2S)-2-({[trans-4-(Aminomethyl)cyclohexyl]carbonyl}amino)-3-oxo-3-{[4-(2H-tetrazol-5-yl)phenyl]amino}propyl]-N-[2-(diethylamino)ethyl]-2-methylbiphenyl-4-carboxamide hydrochloride] | 4.9 nM | 0.14 µmol/L |
| Cc1cc(C(=O)NCCN)ccc1-c1ccc(C[C@H](NC(=O)[C@H]2CC[C@H](CN)CC2)C(=O)Nc2ccc3cn[nH]c3c2)cc1 [Example 3, N-(2-Aminoethyl)-4′-[(2S)-2-({[trans-4-(aminomethyl)cyclohexyl]carbonyl}amino)-3-(1H-indazol-6-ylamino)-3-oxopropyl]-2-methylbiphenyl-4-carboxamide hydrochloride] | 11 nM | 0.2 µmol/L |
| Cc1cc(C(=O)NC2CCNCC2)ccc1-c1ccc(C[C@H](NC(=O)[C@H]2CC[C@H](CN)CC2)C(=O)Nc2ccc3cn[nH]c3c2)cc1 [Example 4, 4′-[(2S)-2-({[trans-4-(Aminomethyl)cyclohexyl]carbonyl}amino)-3-(1H-indazol-6-ylamino)-3-oxopropyl]-2-methyl-N-(piperidin-4-yl)biphenyl-4-carboxamide hydrochloride] | 11.9 nM | 0.21 µmol/L |
| Cc1cc(C(=O)N2CCNCC2)ccc1-c1ccc(C[C@H](NC(=O)[C@H]2CC[C@H](CN)CC2)C(=O)Nc2ccc3cn[nH]c3c2)cc1 [Example 5, trans-4-(Aminomethyl)-N-{(2S)-1-(1H-indazol-6-ylamino)-3-[2′-methyl-4′-(piperazin-1-ylcarbonyl)biphenyl-4-yl]-1-oxopropan-2-yl}cyclohexanecarboxamide hydrochloride] | 16 nM | 0.21 µmol/L |
| CCN(CC)CCNC(=O)c1ccc(-c2ccc(C[C@H](NC(=O)[C@H]3CC[C@H](CN)CC3)C(=O)Nc3ccc4cn[nH]c4c3)cc2)c(C)c1 [Example 6, 4′-[(2S)-2-({[trans-4-(Aminomethyl)cyclohexyl]carbonyl}amino)-3-(1H-indazol-6-ylamino)-3-oxopropyl]-N-[2-(diethylamino)ethyl]-2-methylbiphenyl-4-carboxamide hydrochloride] | 17 nM | 0.21 µmol/L |
| Cc1cc(C(=O)N[C@@H]2CCNC2)ccc1-c1ccc(C[C@H](NC(=O)[C@H]2CC[C@H](CN)CC2)C(=O)Nc2ccc(-c3nn[nH]n3)cc2)cc1 [Example 8, 4′-[(2S)-2-({[trans-4-(Aminomethyl)cyclohexyl]carbonyl}amino)-3-oxo-3-{[4-(2H-tetrazol-5-yl)phenyl]amino}propyl]-2-methyl-N-[(3R)-pyrrolidin-3-yl]biphenyl-4-carboxamide hydrochloride] | 2.5 nM | 0.09 µmol/L |
| Cc1cc(C(=O)N[C@H]2CCNC2)ccc1-c1ccc(C[C@H](NC(=O)[C@H]2CC[C@H](CN)CC2)C(=O)Nc2ccc(-c3nn[nH]n3)cc2)cc1 [Example 9, 4′-[(2S)-2-({[trans-4-(Aminomethyl)cyclohexyl]carbonyl}amino)-3-oxo-3-{[4-(2H-tetrazol-5-yl)phenyl]amino}propyl]-2-methyl-N-[(3S)-pyrrolidin-3-yl]biphenyl-4-carboxamide hydrochloride] | 1.7 nM | 0.09 µmol/L |
| CCN(CC)CCNC(=O)c1ccc(-c2ccc(C[C@H](NC(=O)[C@H]3CC[C@H](CN)CC3)C(=O)Nc3ccc(-c4nn[nH]n4)cc3)cc2)c(Cl)c1 [Example 10, 4′-[(2S)-2-({[trans-4-(Aminomethyl)cyclohexyl]carbonyl}amino)-3-oxo-3-{[4-(2H-tetrazol-5-yl)phenyl]amino}propyl]-2-chloro-N-[2-(diethylamino)ethyl]biphenyl-4-carboxamide hydrochloride] | 4.4 nM | 0.13 µmol/L |
| NC[C@H]1CC[C@H](C(=O)N[C@@H](Cc2ccc(-c3ccc(C(=O)NC4CCNCC4)cc3Cl)cc2)C(=O)Nc2ccc(-c3nn[nH]n3)cc2)CC1 [Example 11, 4′-[(2S)-2-({[trans-4-(Aminomethyl)cyclohexyl]carbonyl}amino)-3-oxo-3-{[4-(2H-tetrazol-5-yl)phenyl]amino}propyl]-2-chloro-N-(piperidin-4-yl)biphenyl-4-carboxamide hydrochloride] | 2.5 nM | 0.08 µmol/L |
| NC[C@H]1CC[C@H](C(=O)N[C@@H](Cc2ccc(-c3ccc(C(=O)N[C@@H]4CCNC4)cc3Cl)cc2)C(=O)Nc2ccc(-c3nn[nH]n3)cc2)CC1 [Example 12, 4′-[(2S)-2-({[trans-4-(Aminomethyl)cyclohexyl]carbonyl}amino)-3-oxo-3-{[4-(2H-tetrazol-5-yl)phenyl]amino}propyl]-2-chloro-N-[(3R)-pyrrolidin-3-yl]biphenyl-4-carboxamide hydrochloride] | 2.7 nM | 0.1 µmol/L |
| NC[C@H]1CC[C@H](C(=O)N[C@@H](Cc2ccc(-c3ccc(C(=O)N[C@H]4CCNC4)cc3Cl)cc2)C(=O)Nc2ccc(-c3nn[nH]n3)cc2)CC1 [Example 13, 4′-[(2S)-2-({[trans-4-(Aminomethyl)cyclohexyl]carbonyl}amino)-3-oxo-3-{[4-(2H-tetrazol-5-yl)phenyl]amino}propyl]-2-chloro-N-[(3S)-pyrrolidin-3-yl]biphenyl-4-carboxamide hydrochloride] | 4.2 nM | 0.44 µmol/L |
| Cc1cc(C(N)=O)ccc1-c1ccc(C[C@H](NC(=O)[C@H]2CC[C@H](CN)CC2)C(=O)Nc2ccc(-c3nn[nH]n3)cc2)cc1 [Example 14, 4′-[(2S)-2-({[trans-4-(Aminomethyl)cyclohexyl]carbonyl}amino)-3-oxo-3-{[4-(2H-tetrazol-5-yl)phenyl]amino}propyl]-2-methylbiphenyl-4-carboxamide hydrochloride] | 1.4 nM | 0.49 µmol/L |
| Cc1cc(C(=O)NC2CCN(C)CC2)ccc1-c1ccc(C[C@H](NC(=O)[C@H]2CC[C@H](CN)CC2)C(=O)Nc2ccc(-c3nc(C(F)(F)C(F)(F)C(=O)O)n[nH]3)cc2)cc1 [Example 130, 3-[5-(4-{[(2S)-2-({[trans-4-(Aminomethyl)cyclohexyl]carbonyl}amino)-3-{2′-methyl-4′-[(1-methylpiperidin-4-yl)carbamoyl]biphenyl-4-yl}propanoyl]amino}phenyl)-1H-1,2,4-triazol-3-yl]-2,2,3,3-tetrafluoropropanoic acid] | – | 0.12 µmol/L |
